Measured values from US20240116985A1, “STAPLED PEPTIDES AND METHODS THEREOF” (priority 2020, published 2024).
Values after ≈ are worked out from the molar mass of the structure shown. Like-named read-outs stand apart in the source and are kept apart here.

Assays:
[1] = target: T1, full-length beta-Catenin (Uniprot ID P35222) (Homo sapiens, UniProt P35222); test: Fluorescence polarization IC50 (beta-catenin / 5FAM-TCF4 10-53 competition); assay type: binding
T1 construct: 10 nM full-length beta-Catenin (Uniprot ID P35222)
T1 sequence (P35222 1-781): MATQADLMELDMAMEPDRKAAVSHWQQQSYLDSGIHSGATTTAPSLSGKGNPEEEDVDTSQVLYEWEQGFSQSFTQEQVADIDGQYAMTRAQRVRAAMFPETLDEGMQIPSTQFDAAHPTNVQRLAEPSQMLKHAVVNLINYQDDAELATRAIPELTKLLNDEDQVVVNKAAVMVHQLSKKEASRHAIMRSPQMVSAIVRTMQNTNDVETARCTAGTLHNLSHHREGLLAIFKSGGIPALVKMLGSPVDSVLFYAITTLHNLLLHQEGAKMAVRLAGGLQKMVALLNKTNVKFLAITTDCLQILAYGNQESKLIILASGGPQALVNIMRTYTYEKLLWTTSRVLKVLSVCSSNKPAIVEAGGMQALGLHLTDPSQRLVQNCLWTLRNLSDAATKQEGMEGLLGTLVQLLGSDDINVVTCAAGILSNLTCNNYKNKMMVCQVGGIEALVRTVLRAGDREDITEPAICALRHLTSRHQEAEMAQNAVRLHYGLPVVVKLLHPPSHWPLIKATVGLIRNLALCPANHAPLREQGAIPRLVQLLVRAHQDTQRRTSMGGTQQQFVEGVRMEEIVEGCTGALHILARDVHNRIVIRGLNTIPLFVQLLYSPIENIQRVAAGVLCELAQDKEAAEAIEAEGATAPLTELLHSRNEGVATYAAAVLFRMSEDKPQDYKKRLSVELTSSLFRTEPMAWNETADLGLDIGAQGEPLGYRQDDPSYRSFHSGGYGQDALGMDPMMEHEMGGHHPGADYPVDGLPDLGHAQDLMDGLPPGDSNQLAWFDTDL

Solubility in PBS = assay type: physicochemical
Method in brief: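 Steps: ultracentrifuge the peptide PBS solution, inject the supernatant on HPLC, inject a 50 μM peptide DMSO solution as reference, then calculate solubility as area ratio (PBS/DMSO) × 50 uM.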

CHI Log D procedure = assay type: physicochemical; details: for CHI Log D: pH 7.4
[2] = fluorescence polarization, read-out: beta-Catenin FP IC50

CC[C@H](C)[C@@H]1NC(=O)[C@H](CC(=O)O)NC(=O)[C@]2(CC=CCCCC3(CCCC=CCCCCCC[C@@](C)(C(=O)N[C@@H](Cc4ccccc4)C(=O)N[C@@H](Cc4csc5ccccc45)C(=O)N[C@@H](Cc4ccc(O)cc4)C(N)=O)NC(=O)[C@H](CCC(N)=O)NC(=O)[C@H](Cc4ccccc4)NC(=O)[C@H](C)NC(=O)[C@H](C)NC(=O)[C@H](CCC(=O)O)NC(=O)[C@H](CC(=O)O)NC3=O)NC1=O)CCCN2C(C)=O (stereo partly drawn) [I-636, Ac-PL3-Asp-Ile-B5-Asp-Glu-Ala-Ala-Phe-Gln-S8-Phe-BztA-Tyr-NH2]
IC50 [1, 2]: 0.198 µM | Solubility (Solubility in PBS): 50 µM (≈ 95.9 µg/mL) | chromatographic logD (CHI Log D procedure; pH 7.4, CHI Log D): 2.57

CC[C@H](C)[C@@H]1NC(=O)[C@H](CC(=O)O)NC(=O)[C@]2(CC=CCCCC3(CCCC=CCCCCCC[C@@](C)(C(=O)N[C@@H](Cc4ccccc4)C(=O)N[C@@H](Cc4csc5ccccc45)C(=O)N4CCC[C@H]4C(N)=O)NC(=O)[C@H](CCC(N)=O)NC(=O)[C@H](Cc4ccccc4)NC(=O)[C@H](C)NC(=O)[C@H](C)NC(=O)[C@H](CCC(=O)O)NC(=O)[C@H](CC(=O)O)NC3=O)NC1=O)CCCN2C(C)=O (stereo partly drawn) [I-638, Ac-PL3-Asp-Ile-B5-Asp-Glu-Ala-Ala-Phe-Gln-S8-Phe-BztA-Pro-NH2]
IC50 [1, 2]: 3.88 µM | IC50 ([1]; read-out: FP EC50): 3.88 µM | Solubility (Solubility in PBS): 48 µM (≈ 88.9 µg/mL) | CHI Log D (CHI Log D procedure): 2.622

CC[C@H](C)[C@@H]1NC(=O)[C@H](CC(=O)O)NC(=O)[C@]2(CC=CCCCC3(CCCC=CCCCCCC[C@@](C)(C(=O)N[C@@H](Cc4ccccc4)C(=O)N[C@@H](Cc4csc5ccccc45)C(=O)N[C@@H](CO)C(N)=O)NC(=O)[C@H](CCC(N)=O)NC(=O)[C@H](Cc4ccccc4)NC(=O)[C@H](C)NC(=O)[C@H](C)NC(=O)[C@H](CCC(=O)O)NC(=O)[C@H](CC(=O)O)NC3=O)NC1=O)CCCN2C(C)=O (stereo partly drawn) [I-639, Ac-PL3-Asp-Ile-B5-Asp-Glu-Ala-Ala-Phe-Gln-S8-Phe-BztA-Ser-NH2]
IC50 [1, 2]: 0.109 µM | IC50 ([1]; read-out: FP EC50): 0.109 µM | Solubility (Solubility in PBS): 44 µM (≈ 81.1 µg/mL) | CHI Log D (CHI Log D procedure): 2.49

CC[C@H](C)[C@@H]1NC(=O)[C@H](CC(=O)O)NC(=O)[C@]2(CC=CCCCC3(CCCC=CCCCCCC[C@@](C)(C(=O)N[C@@H](Cc4ccccc4)C(=O)N[C@@H](Cc4csc5ccccc45)C(=O)N[C@@H](CO)C(N)=O)NC(=O)[C@H](CCC(N)=O)NC(=O)[C@H](Cc4ccccc4)NC(=O)[C@H](C)NC(=O)[C@H](C)NC(=O)[C@H](CCC(=O)O)NC(=O)[C@H](CC(=O)O)NC3=O)NC1=O)CCCN2C(C)=O (stereo partly drawn) [I-640, Ac-PL3-Asp-Ile-B5-Asp-Glu-Ala-Ala-Phe-Gln-S8-Phe-BztA-Ser-NH2]
IC50 [1, 2]: 0.087 µM | IC50 ([1]; read-out: FP EC50): 0.087 µM | Solubility (Solubility in PBS): 50 µM (≈ 92.1 µg/mL) | CHI Log D (CHI Log D procedure): 2.516

CC[C@H](C)[C@@H]1NC(=O)[C@H](CC(=O)O)NC(=O)[C@]2(CC=CCCCC3(CCCC=CCCCCCC[C@@](C)(C(=O)N[C@@H](Cc4ccccc4)C(=O)N[C@@H](Cc4csc5ccccc45)C(=O)N[C@H](C(N)=O)[C@@H](C)O)NC(=O)[C@H](CCC(N)=O)NC(=O)[C@H](Cc4ccccc4)NC(=O)[C@H](C)NC(=O)[C@H](C)NC(=O)[C@H](CCC(=O)O)NC(=O)[C@H](CC(=O)O)NC3=O)NC1=O)CCCN2C(C)=O (stereo partly drawn) [I-641, Ac-PL3-Asp-Ile-B5-Asp-Glu-Ala-Ala-Phe-Gln-S8-Phe-BztA-Thr-NH2]
IC50 [1, 2]: 0.122 µM | IC50 ([1]; read-out: FP EC50): 0.122 µM | Solubility (Solubility in PBS): 43 µM (≈ 79.8 µg/mL) | CHI Log D (CHI Log D procedure): 2.497

CC[C@H](C)[C@@H]1NC(=O)[C@H](CC(=O)O)NC(=O)[C@]2(CC=CCCCC3(CCCC=CCCCCCC[C@@](C)(C(=O)N[C@@H](Cc4ccccc4)C(=O)N[C@@H](Cc4csc5ccccc45)C(=O)N[C@H](C(N)=O)[C@@H](C)O)NC(=O)[C@H](CCC(N)=O)NC(=O)[C@H](Cc4ccccc4)NC(=O)[C@H](C)NC(=O)[C@H](C)NC(=O)[C@H](CCC(=O)O)NC(=O)[C@H](CC(=O)O)NC3=O)NC1=O)CCCN2C(C)=O (stereo partly drawn) [I-642, Ac-PL3-Asp-Ile-B5-Asp-Glu-Ala-Ala-Phe-Gln-S8-Phe-BztA-Thr-NH2]
IC50 [1, 2]: 0.118 µM | IC50 ([1]; read-out: FP EC50): 0.118 µM | Solubility (Solubility in PBS): 48 µM (≈ 89.1 µg/mL) | CHI Log D (CHI Log D procedure): 2.512

CC[C@H](C)[C@@H]1NC(=O)[C@H](CC(=O)O)NC(=O)[C@]2(CC=CCCCC3(CCCC=CCCCCCC[C@@](C)(C(=O)N[C@@H](Cc4ccccc4)C(=O)N[C@@H](Cc4csc5ccccc45)C(=O)N[C@@H](Cc4c[nH]c5ccccc45)C(N)=O)NC(=O)[C@H](CCC(N)=O)NC(=O)[C@H](Cc4ccccc4)NC(=O)[C@H](C)NC(=O)[C@H](C)NC(=O)[C@H](CCC(=O)O)NC(=O)[C@H](CC(=O)O)NC3=O)NC1=O)CCCN2C(C)=O (stereo partly drawn) [I-643, Ac-PL3-Asp-Ile-B5-Asp-Glu-Ala-Ala-Phe-Gln-S8-Phe-BztA-Trp-NH2]
IC50 [1, 2]: 0.958 µM | IC50 ([1]; read-out: FP EC50): 0.958 µM | Solubility (Solubility in PBS): 28 µM (≈ 54.4 µg/mL) | CHI Log D (CHI Log D procedure): 2.833

CC[C@H](C)[C@@H]1NC(=O)[C@H](CC(=O)O)NC(=O)[C@]2(CC=CCCCC3(CCCC=CCCCCCC[C@@](C)(C(=O)N[C@@H](Cc4ccccc4)C(=O)N[C@@H](Cc4csc5ccccc45)C(=O)N[C@@H](Cc4c[nH]c5ccccc45)C(N)=O)NC(=O)[C@H](CCC(N)=O)NC(=O)[C@H](Cc4ccccc4)NC(=O)[C@H](C)NC(=O)[C@H](C)NC(=O)[C@H](CCC(=O)O)NC(=O)[C@H](CC(=O)O)NC3=O)NC1=O)CCCN2C(C)=O (stereo partly drawn) [I-644, Ac-PL3-Asp-Ile-B5-Asp-Glu-Ala-Ala-Phe-Gln-S8-Phe-BztA-Trp-NH2]
IC50 [1, 2]: 0.808 µM | IC50 ([1]; read-out: FP EC50): 0.808 µM | Solubility (Solubility in PBS): 22 µM (≈ 42.7 µg/mL) | CHI Log D (CHI Log D procedure): 2.837

CC[C@H](C)[C@@H]1NC(=O)[C@H](CC(=O)O)NC(=O)[C@]2(CC=CCCCC3(CCCC=CCCCCCC[C@@](C)(C(=O)N[C@@H](Cc4ccccc4)C(=O)N[C@@H](Cc4csc5ccccc45)C(=O)N[C@H](C(N)=O)C(C)C)NC(=O)[C@H](CCC(N)=O)NC(=O)[C@H](Cc4ccccc4)NC(=O)[C@H](C)NC(=O)[C@H](C)NC(=O)[C@H](CCC(=O)O)NC(=O)[C@H](CC(=O)O)NC3=O)NC1=O)CCCN2C(C)=O (stereo partly drawn) [I-645, Ac-PL3-Asp-Ile-B5-Asp-Glu-Ala-Ala-Phe-Gln-S8-Phe-BztA-Val-NH2]
IC50 [1, 2]: 0.395 µM | IC50 ([1]; read-out: FP EC50): 0.395 µM | Solubility (Solubility in PBS): 40 µM (≈ 74.2 µg/mL) | CHI Log D (CHI Log D procedure): 2.677

CC[C@H](C)[C@@H]1NC(=O)[C@H](CC(=O)O)NC(=O)[C@]2(CC=CCCCC3(CCCC=CCCCCCC[C@@](C)(C(=O)N[C@@H](Cc4ccccc4)C(=O)N[C@@H](Cc4csc5ccccc45)C(=O)N[C@H](C(N)=O)C(C)C)NC(=O)[C@H](CCC(N)=O)NC(=O)[C@H](Cc4ccccc4)NC(=O)[C@H](C)NC(=O)[C@H](C)NC(=O)[C@H](CCC(=O)O)NC(=O)[C@H](CC(=O)O)NC3=O)NC1=O)CCCN2C(C)=O (stereo partly drawn) [I-646, Ac-PL3-Asp-Ile-B5-Asp-Glu-Ala-Ala-Phe-Gln-S8-Phe-BztA-Val-NH2]
IC50 [1, 2]: 0.461 µM | IC50 ([1]; read-out: FP EC50): 0.461 µM | Solubility (Solubility in PBS): 41 µM (≈ 76 µg/mL) | CHI Log D (CHI Log D procedure): 2.694

CC[C@H](C)[C@@H]1NC(=O)[C@H](CC(=O)O)NC(=O)[C@]2(CC=CCCCC3(CCCC=CCCCCCC[C@@](C)(C(=O)N[C@@H](Cc4ccccc4)C(=O)N[C@@H](Cc4csc5ccccc45)C(=O)N[C@@H](CCC(N)=O)C(N)=O)NC(=O)[C@H](CCC(N)=O)NC(=O)[C@H](Cc4ccccc4)NC(=O)[C@H](C)NC(=O)[C@H](CC(C)C)NC(=O)[C@H](CCC(=O)O)NC(=O)[C@H](CC(=O)O)NC3=O)NC1=O)CCCN2C(C)=O (stereo partly drawn) [I-647, Ac-PL3-Asp-Ile-B5-Asp-Glu-Leu-Ala-Phe-Gln-S8-Phe-BztA-Gln-NH2]
IC50 [1, 2]: 0.445 µM | IC50 ([1]; read-out: FP EC50): 0.445 µM | Solubility (Solubility in PBS): 50 µM (≈ 96.3 µg/mL) | CHI Log D (CHI Log D procedure): 2.677

CC[C@H](C)[C@@H]1NC(=O)[C@H](CC(=O)O)NC(=O)[C@]2(CC=CCCCC3(CCCC=CCCCCCC[C@@](C)(C(=O)N[C@@H](Cc4ccccc4)C(=O)N[C@@H](Cc4csc5ccccc45)C(=O)N[C@@H](CCC(N)=O)C(N)=O)NC(=O)[C@H](CCC(N)=O)NC(=O)[C@H](Cc4ccccc4)NC(=O)[C@H](C)NC(=O)[C@H](CC(C)C)NC(=O)[C@H](CCC(=O)O)NC(=O)[C@H](CC(=O)O)NC3=O)NC1=O)CCCN2C(C)=O (stereo partly drawn) [I-648, Ac-PL3-Asp-Ile-B5-Asp-Glu-Leu-Ala-Phe-Gln-S8-Phe-BztA-Gln-NH2]
IC50 [1, 2]: 0.233 µM | IC50 ([1]; read-out: FP EC50): 0.233 µM | Solubility (Solubility in PBS): 46 µM (≈ 88.6 µg/mL) | CHI Log D (CHI Log D procedure): 2.721
